Data: article PMC12111648, “New Dimethoxyaryl-Sesquiterpene Derivatives with Cytotoxic Activity Against MCF-7 Breast Cancer Cells: From Synthesis to Topoisomerase I/II Inhibition and Cell Death Mechanism Studies” (International Journal of Molecular Sciences, 2025)
Entries after “also recorded” stand apart in the source; their conditions may differ.

Assays:
Type in all cases: cell-based, human
MCF-7 cells [1] = assay: MTT cytotoxicity assay on MCF-7 cells; details: for IC50: Homo sapiens, MCF7, MTT, 48 h incubation, IC50 ± SD, three experiments in triplicate; for Selectivity Index (SI): SI = IC50 on MCF-10 cells/IC50 on MCF-7 cells
Protocol: (§1) In this study, we wondered whether semi-synthetic compounds have potential antitumoral properties against BC. Therefore, we were interested in investigating the effect of the compounds on the MCF-7 cell line. Firstly, we studied the effect on cell viability using a colorimetric MTT assay, which was performed to quantify the cytotoxic activity; each compound was evaluated at different concentrations (500−100−20−4−0.8−0.16−0.032−0 µM). Daunorubicin was also used as a positive control for comparison with a reference drug. […] Although the MCF-10 cell line provides a useful selectivity model, it may not fully represent the varying sensitivities of different normal cell types within a multicellular organism. The SI value indicates the ratio of toxicity in mammalian host cells to that in a tumoral cell. The data obtained in response to different concentrations of compounds were used to calculate the IC50 and corresponding SI values, as shown in Table 1.
(§2) The American Type Culture Collection (Rockville, MD, USA) supplied the following experimental cell lines: MCF-7, a human breast cancer cell line, and MCF-10A, a human epithelial breast cell line (ATCC N° CRL-10317). Both cell lines were grown in DMEM-F12 medium containing 10% FCS, 100 U/mL penicillin, 100 μg/mL streptomycin, and 1 mM glutamine. The cells were seeded at a concentration of 100 μL per well at a plating density of 3 × 10^3 cells/well and incubated for 24 h at 37 °C under 5% humidified CO2 to enable attachment. The cells were then treated with varying concentrations of synthesized compounds for […] under the same conditions. The compound stock solution was prepared in DMSO, and the final concentration of DMSO was kept at 0.1%. Control cultures were treated with only 1% ethanol.
(§3) Cells from the MCF-7 and MCF-10 lines were seeded into 96-well plates at a density of 1 × 10^4 per well. After 24 h, the compounds were added at increasing concentrations (500–100–20-4–0.8–0.16–0.032–0 µM), and the cells were incubated at 37 °C in a humidified 5% CO2/95% air mixture for 48 h. Following incubation, the cells were washed twice with PBS, and 100 μL of 0.5 mg/mL MTT solution was added to each well. After 2 h of incubation, the MTT solution was removed, and the formazan crystals were dissolved in 50 μL of DMSO per well. Absorbance was then measured at 570 nm using a microplate ELISA reader. IC50 values, determined from three independent experiments conducted in triplicate, were calculated using SigmaPlot® software (version 11.0). The selectivity index (SI) of each compound in each cell line was determined by calculating the ratio of the IC50 values for MCF-10 and cancer cell lines. Compounds were considered selective if SI values were equal to or greater than 3 [46].

[2] = test system: caspases-3/7 in MCF-7 cells; assay: Caspase-Glo 3/7 assay; details: MCF-7, 50 μM, 24 h, versus control
Protocol: Since ROS levels were increased in the MCF-7 cancer cell line in response to the compounds, it is important to determine whether this effect is associated with the onset of apoptotic cell death. […] Cells were treated with the selected compounds at 50 μM for 24 h, incubated in situ with the Caspase-Glo 3/7 marker assay, and then analyzed in a luminometer.
The activity of caspase 3/7 in MCF-7 cells treated with the compounds was determined using a Caspase-Glo-3/7 Assay kit from Promega (UK). This assay is a homogenous and luminescent method that measures the activity of caspase-3 and -7, which are essential for apoptosis. MCF-7 cells (1 × 10^4 cells per well) were seeded in a 96-well plate and incubated overnight. The cells were then treated for 24 h with the compounds (50 µM) and a blank as a control. After treatment, the Caspase-Glo® 3/7 reagent was prepared according to the manufacturer’s instructions. Specifically, 100 μL of the reagent was added to 100 μL of culture medium containing the treated cells in each well, and the mixture was incubated for 1 h at room temperature in the dark. Luminescence was then measured using a luminometer (Berthold Sirius Single Tube Luminometer). The fold change in caspase activity was calculated by expressing the average luminescence of each treatment as a fold change with respect to the average luminescence of the negative control.
Figure 6 The effect of the compounds on caspases-3/7 activity in cells from the human breast cancer cell line MCF-7. Caspases-3/7 activity was determined in MCF-7 cells following treatment with the compounds (50 μM) for 24 h. The data are reported as the ratio of activity in treated cells vs. the control (1% ethanol), which were arbitrarily assigned a unitary value. * p < 0.05 versus control cells (Ctrl). The data are reported as the mean values ± S.D. of three different experiments with samples in triplicate.

MCF-7 cells [3] = assay: Intracellular ROS generation (DCFH2-DA, flow cytometry); details: MCF-7, compounds at respective IC50, 24 h, versus control
Protocol: An increase in intracellular ROS may be one of the factors that contribute to the cytotoxicity of certain compounds in cancer cell lines. In fact, ROS and mitochondrial damage are often associated with the induction of cell death. […] DCF fluorescence was then measured by flow cytometry. The difference in the percentage of DCF-positive cells between treated and control cells was used to indicate an increase in intracellular ROS, as shown in Figure 4.
Reactive oxygen species (ROS) production was measured using flow cytometry. Cells were treated with compounds (each with respective IC50 values) for 24 h, with untreated cells serving as the negative control and cells treated with 1 µM daunorubicin as the positive control. Following the treatment, intracellular ROS levels were visualized after incubation with 2′,7′-dichlorodihydro-fluorescein diacetate (DCFH2-DA) at a final concentration of 10 μM for the last 30 min of the treatment period. After incubation, the cells were washed with PBS, trypsinized, and centrifuged, and the resulting pellet was resuspended in PBS and immediately examined by flow cytometry.
Figure 4 The effect of the compound’s treatment on intracellular ROS generation. Cells were treated with compounds (respective IC50 values for each compound for 24 h), and intracellular ROS levels were determined in the human cancer cell line MCF-7 by flow cytometry using dichloro-fluorescein diacetate (DCFH2-DA). * p < 0.05 versus control cells (Ctrl). The data represent the means ± S.D. of at least three experiments with triplicate samples.

MCF-10 cells = assay: MTT cytotoxicity assay on non-tumoral MCF-10 cells; details: Homo sapiens, MCF10, 48 h incubation, IC50 ± SD, three experiments in triplicate
Protocol: as §1, §2, §3

Row | SMILES | IC50 (MCF-7 cells [1]) | Selectivity Index (SI) (MCF-7 cells [1]) | caspases-3/7 activity [2] | intracellular ROS levels (DCF fluorescence) (MCF-7 cells [3]) | IC50 (MCF-10 cells)
1 | COc1ccc(/C=C2\C(C)=CCC3C(C)(C)CCC[C@]23C)cc1OC (stereo partly drawn) [Compound 13c, (4aS)-5-((E)-3,4-Dimethoxybenzylidene)-1,1,4a,6-tetramethyl-1,2,3,4,4a,5,8,8a-octahydronaphthalene] | 22.5 ± 2.6 µM | 6.0 | considerably enhanced | significantly increased | 135 ± 26.6 µM
2 | COc1cc2c(cc1OC)[C@]1(C)CCC3C(C)(C)CCC[C@]3(C)C1=C2 (stereo partly drawn) [Compound 14c, (6aR,11bS)-8,9-Dimethoxy-4,4,6a,11b-tetramethyl-2,3,4,4a,5,6,6a,11b-octahydro-1H-benzo[a]fluorene] | 9 ± 2.8 µM | 44 | activated caspases-3/7; also recorded: considerably enhanced | induced oxidative stress; also recorded: significantly increased | 393 ± 47.1 µM
